Assay results published in patent US12582654B2, “Cyano-substituted pyridine and cyano-substituted pyrimidine compound and preparation method therefor and application thereof” (BEIJING SCITECH-MQ PHARMACEUTICALS LIMITED, priority 2019, dated 2026).

Tests used:
[1] = target: FGFR4 kinase (Homo sapiens, UniProt P22455); assay: Inhibition of FGFR4 kinase activity (ULight-labeled JAK-1 peptide, EU665/EU615 reading); type: biochemical; details: FGFR4 kinase 3.85 nM, ATP 100 μM, enzymatic reaction 2 hours
FGFR4 kinase, sequence (P22455 22-802): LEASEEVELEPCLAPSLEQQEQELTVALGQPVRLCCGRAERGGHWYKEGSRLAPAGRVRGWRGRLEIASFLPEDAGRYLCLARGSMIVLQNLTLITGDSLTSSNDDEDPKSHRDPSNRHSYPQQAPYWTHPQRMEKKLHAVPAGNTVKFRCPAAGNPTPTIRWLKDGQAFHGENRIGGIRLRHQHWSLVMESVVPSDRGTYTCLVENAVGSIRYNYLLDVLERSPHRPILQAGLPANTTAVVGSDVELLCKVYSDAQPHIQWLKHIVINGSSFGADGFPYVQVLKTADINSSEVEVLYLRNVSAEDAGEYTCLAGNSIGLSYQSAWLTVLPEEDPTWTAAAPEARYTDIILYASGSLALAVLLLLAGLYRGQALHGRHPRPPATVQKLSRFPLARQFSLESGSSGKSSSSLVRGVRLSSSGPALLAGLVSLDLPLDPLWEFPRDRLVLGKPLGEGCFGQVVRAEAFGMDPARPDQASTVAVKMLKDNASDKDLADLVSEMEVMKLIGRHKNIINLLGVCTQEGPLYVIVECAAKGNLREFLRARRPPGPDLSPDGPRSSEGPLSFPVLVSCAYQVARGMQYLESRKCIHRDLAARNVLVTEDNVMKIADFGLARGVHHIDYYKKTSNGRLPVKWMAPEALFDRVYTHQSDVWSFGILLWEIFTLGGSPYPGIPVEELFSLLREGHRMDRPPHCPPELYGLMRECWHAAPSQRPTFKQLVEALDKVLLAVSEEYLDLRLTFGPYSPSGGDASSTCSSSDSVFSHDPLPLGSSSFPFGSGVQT
Description: (§1) Assay of activity of small molecule compounds on inhibiting FGFR4 kinase and FGFR4 V550L mutant kinase. The assay method was as follows:
(§2) 1) Dilution of Compounds:
(§3) In a 96-well plate a, the compounds were serially diluted 3-fold with DMSO to form 11 concentrations, and the 12th concentration was pure DMSO (as a positive control); In a new 96-well plate b, the above solutions were diluted 25-fold with ultrapure water (DMSO concentration was 4%).
(§4) 2) Transferring Compounds to a 384-Well Plate:
(§5) The above solutions of compounds diluted with ultrapure water in the 96-well plate b were pipetted into corresponding wells of a 384-well plate.
(§6) 3) Adding 4× kinase solution: 2.5 μl of the above 4× kinase solutions were pipetted with a multi-channel pipette into corresponding reaction wells of the 384-well plate, and the mixture was mixed well and pre-reacted at room temperature for 5 minutes.
(§7) 4) Adding 2× substrate/ATP mixture: 5 μl of the above 2× substrate/ATP mixtures were pipetted with a multi-channel pipette into corresponding reaction wells of the 384-well plate.
(§8) 5) Negative control: negative control wells were set up in the 384-well plate by adding 2.5 μl of 4× substrate, 2.5 μl of 4× enzyme solution, 2.5 μl of 1× kinase Assay Buffer and 2.5 μl of ultrapure water containing 4% DMSO to each well.
(§9) 6) Centrifuging, mixing well, and reacting at room temperature in the dark for 2 hours.
(§10) 7) Terminating the Enzymatic Reaction:
(§11) 5 μl of the above 4× stop solutions were pipetted into corresponding wells of the 384-well plate, and the mixture was centrifuged, mixed well, and then reacted at room temperature for 5 minutes.
(§12) 8) Development of the Reaction:
(§13) 5 μl of the above 4× detection solutions were pipetted into corresponding wells of the 384-well plate, and the mixture was centrifuged, mixed well, and then reacted at room temperature for 1 hour.
(§14) 9) The 384-well plate was placed into a plate reader, and the signal was detected using the appropriate program.
(§15) 10) Analysis of IC50: Reading of well=10000*EU665 value/EU615 value Inhibition rate=(reading of positive control well−reading of assay well)/(reading of positive control well−reading of negative control well)*100%
(§16) The corresponding IC50 can be calculated by inputting the drug concentrations and corresponding inhibition rates into GraphPad Prism 5 and processing.
Assay Conditions for Screening FGFR4 Kinase Activity Inhibitory Molecule:
The final concentration of FGFR4 kinase in the reaction system was 3.85 nM, the final concentration of ATP was 100 μM, the final concentration of substrate ULight™-labeled JAK-1 (Tyr1023) Peptide was 100 nM, and the time for enzymatic reaction was 2 hours.
The highest final concentration of the compound in the reaction system was 2.5 μM. After serial 3-fold dilution, there were 11 concentrations in total, and the lowest final concentration was 0.042 nM. The final concentration of DMSO was 1%.

[2] = target: FGFR4 V550L kinase (Homo sapiens, UniProt P22455, V550L); assay: Inhibition of FGFR4 V550L mutant kinase activity (ULight-labeled PolyGT, EU665/EU615 reading); type: biochemical; details: FGFR4 V550L kinase 1 nM, ATP 10 μM, enzymatic reaction 2 hours
FGFR4 V550L kinase, sequence (P22455 22-802 V550L): as the sequence (P22455 22-802) above, with V529L counted along it
Description: as §1, §2, §3, §4, §5, §6, §7, §8, §9, §10, §11, §12, §13, §14, §15, §16
Assay Conditions for Screening FGFR4 V550L Kinase Activity Inhibitory Molecule:
The final concentration of FGFR4 V550L kinase in the reaction system was 1 nM, the final concentration of ATP was 10 μM, the final concentration of substrate ULight™-labeled PolyGT was 100 nM, and the time for enzymatic reaction was 2 hours.
The highest final concentration of the compound in the reaction system was 2.5 μM. After seral 3-fold dilution, there were 11 concentrations in total, and the lowest final concentration was 0.042 nM. The final concentration of DMSO was 1%.

[3] = target: T1, Ba/F3 ETV6-FGFR4 cells (Homo sapiens, UniProt P22455); assay: Inhibition of cell proliferation (CCK-8), Ba/F3 ETV6-FGFR4 cells; type: cell-based; details: 72 hours of incubation, read-out: Ba/F3 ETV6-FGFR4 IC50
T1 construct: fused on or other part: N-terminal part of ETV6 (TEL), the oligomerising partner that makes the FGFR4 kinase constitutively active; P41212 (Transcription factor ETV6)
T1 sequence (P22455 whole entry, change not shown, the tested form may be a part): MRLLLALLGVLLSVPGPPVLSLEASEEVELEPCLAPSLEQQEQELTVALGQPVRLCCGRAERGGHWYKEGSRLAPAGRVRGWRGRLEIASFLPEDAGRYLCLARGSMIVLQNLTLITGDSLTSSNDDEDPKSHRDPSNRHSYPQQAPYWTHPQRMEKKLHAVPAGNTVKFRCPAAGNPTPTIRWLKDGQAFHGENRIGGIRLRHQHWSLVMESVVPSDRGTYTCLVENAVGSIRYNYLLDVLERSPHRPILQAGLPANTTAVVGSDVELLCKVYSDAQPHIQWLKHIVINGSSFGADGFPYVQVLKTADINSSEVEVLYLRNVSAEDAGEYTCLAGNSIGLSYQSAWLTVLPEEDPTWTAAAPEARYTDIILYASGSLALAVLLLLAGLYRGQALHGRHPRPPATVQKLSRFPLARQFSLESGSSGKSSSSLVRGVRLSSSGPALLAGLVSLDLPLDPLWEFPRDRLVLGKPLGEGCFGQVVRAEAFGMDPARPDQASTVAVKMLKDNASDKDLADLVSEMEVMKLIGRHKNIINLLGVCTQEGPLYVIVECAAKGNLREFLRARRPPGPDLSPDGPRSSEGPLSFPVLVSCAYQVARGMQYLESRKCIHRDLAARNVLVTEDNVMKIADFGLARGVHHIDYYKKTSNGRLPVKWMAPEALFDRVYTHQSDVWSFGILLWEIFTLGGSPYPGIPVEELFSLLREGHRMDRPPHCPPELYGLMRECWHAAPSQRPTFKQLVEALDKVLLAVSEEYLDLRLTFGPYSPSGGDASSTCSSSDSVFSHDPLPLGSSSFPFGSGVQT
Description: (§17) Compounds were assayed for inhibiting cell proliferation, and the specific method was as follows: • 1. Cells were cultured to a logarithmic growth phase, pipetted evenly, transferred to a 15 mL centrifuge tube, and centrifuged at 1000 rpm at room temperature for 4 minutes; • 2. The supernatant was discarded; 5 mL of complete medium was added and pipetted evenly; 10 μL of cell suspension was weighed, mixed well with 10 μL of 0.4% trypan blue, and counted under a cell counter; the proportion of living cells was ensured to be above 90%; • 3. The cell suspension was seeded into a 96-well plate (80 μL of cell suspension per well) according to the conditions shown in Table 5; in the outer 36 wells of the 96-well plate, no cells were added but only sterile water was added; only the inner 60 wells were used for cell assay and control; • 4. 5× compound dilution: the compounds were serially diluted 4-fold to give a total of 9 concentrations; 80-fold overall dilution was completed with complete medium, the resulting concentration was 5 times the final drug concentration, and DMSO concentration was 1.25%; • 5. 20 μL of the corresponding compounds with different concentrations were added to each well of assay wells of the 96-well plate; 20 μL of complete medium was added to positive and negative control wells and shaken well; and the final concentration of DMSO in each well was 0.25%; • 6. After 72 hours of incubation, 10 μL of CCK-8 reagent was added to each well and further incubated at 37° C. for 1-2 hours; and the OD value was read at 450 nm; 7. Cell survival rate (%)=[(As−Ab)/(Ac−Ab)]*100% • As: Assay well (medium containing cells, CCK-8, compound) • Ac: Control well (medium containing cells, CCK-8) • Ab: Blank well (medium without cell and compound, CCK-8) • 8. The values were imported into Graphpad Prism 5 software for IC50 calculation.

[4] = target: T2, Ba/F3 ETV6-FGFR4-V550L cells (Homo sapiens, UniProt P22455, V550L, cells depend on it); assay: Inhibition of cell proliferation (CCK-8), Ba/F3 ETV6-FGFR4-V550L cells; type: cell-based; details: 72 hours of incubation, read-out: Ba/F3 ETV6-FGFR4-V550L IC50
T2 construct: fused on or other part: N-terminal part of ETV6 (TEL), the oligomerising partner of the fusion; already named as the first entry; P41212 (Transcription factor ETV6)
T2 sequence (P22455 whole entry V550L, the tested form may be a part): as the sequence (P22455 whole entry, change not shown, the tested form may be a part) above, with V550L counted along it
Description: as §17

| Structure (SMILES) | IC50 [1] [nM] | IC50 [2] [nM] | GI50 [3] [nM] | GI50 [4] [nM] |
| --- | --- | --- | --- | --- |
| C=CC(=O)Nc1cc(N2CCN(CC)CC2)ccc1Nc1ncc(C#N)c(Nc2ccc(OCCOC)cc2OC(C)C)n1 [Example 33, N-(2-((5-cyano-4-((2-isopropoxy-4-(2-methoxyethoxy)phenyl)amino)pyrimidin-2-yl)amino)-5-(4-ethylpiperazin-1-yl)phenyl) acrylamide] | ≤ 10 | 10 to 50 | ≤ 10 | ≤ 10 |
| C=CC(=O)Nc1cc(N2CCN(CC)CC2)ccc1Nc1ncc(C#N)c(Nc2ccc(C(F)(F)F)cc2OC(C)C)n1 [Example 34, N-(2-((5-cyano-4-((2-isopropoxy-4-(trifluoromethyl)phenyl)amino)pyrimidin-2-yl)amino)-5-(4-ethylpiperazin-1-yl)phenyl) acrylamide] | 50 to 100 | 10 to 50 | 10 to 50 | 10 to 50 |
| C=CC(=O)Nc1cc(N2CCN(CC)CC2)ccc1Nc1ncc(C#N)c(Nc2ccc(C3CC3)cc2OC(C)C)n1 [Example 36, N-(2-((5-cyano-4-((4-cyclopropyl-2-isopropoxyphenyl)amino)pyrimidin-2-yl)amino)-5-(4-ethylpiperazin-1-yl)phenyl) acrylamide] | 10 to 50 | 10 to 50 | 10 to 50 | 10 to 50 |
| C=CC(=O)Nc1cc(N2CCN(C(C)C)CC2)ccc1Nc1ncc(C#N)c(Nc2ccccc2OC(C)C)n1 [Example 37, N-(2-((5-cyano-4-((2-isopropoxyphenyl)amino)pyrimidin-2-yl)amino)-5-(4-isopropylpiperazin-1-yl)phenyl) acrylamide] | ≤ 10 | ≤ 10 | ≤ 10 | ≤ 10 |
| C=CC(=O)Nc1cc(N2CCC(N3CCN(C)CC3)CC2)ccc1Nc1ncc(C#N)c(Nc2ccc(F)cc2OC(C)C)n1 [Example 39, N-(2-((5-cyano-4-((4-fluoro-2-isopropoxyphenyl)amino)pyrimidin-2-yl)amino)-5-(4-(4-methylpiperazin-1-yl)piperidin-1-yl)phenyl) acrylamide] | ≤ 10 | ≤ 10 | ≤ 10 | ≤ 10 |
| C=CC(=O)Nc1cc(N2CCC(N3CCN(C)CC3)CC2)c(F)cc1Nc1ncc(C#N)c(Nc2ccc(F)cc2OC(C)C)n1 [Example 40, N-(2-((5-cyano-4-((4-fluoro-2-isopropoxyphenyl)amino)pyrimidin-2-yl)amino)-4-fluoro-5-(4-(4-methylpiperazin-1-yl)piperidin-1-yl)phenyl) acrylamide] | 10 to 50 | 10 to 50 | ≤ 10 | ≤ 10 |
| C=CC(=O)Nc1cc(N2CCC(N3CCN(C)CC3)CC2)ccc1Nc1ncc(C#N)c(Nc2ccc(C(N)=O)cc2OC(C)C)n1 [Example 41, 4-((2-((2-acrylamido-4-(4-(4-methylpiperazin-1-yl)piperidin-1-yl)phenyl)amino)-5-cyanopyrimidin-4-yl)amino)-3-isopropoxybenzamide] | 10 to 50 | ≤ 10 | 100 to 1000 | 100 to 1000 |
| C=CC(=O)Nc1cc(N2CCC(N3CCC(C)(O)CC3)CC2)ccc1Nc1ncc(C#N)c(Nc2ccccc2OC(C)C)n1 [Example 42, N-(2-((5-cyano-4-((2-isopropoxyphenyl)amino)pyrimidin-2-yl)amino)-5-(4-hydroxy-4-methyl-[1,4′-bipiperidin]-1′-yl)phenyl) acrylamide] | ≤ 10 | ≤ 10 | ≤ 10 | ≤ 10 |

The next lines start with the values.

| IC50 [1] [nM] | IC50 [2] [nM] | GI50 [3] [nM] | GI50 [4] [nM] | Structure (SMILES) |
| --- | --- | --- | --- | --- |
| ≤ 10 | ≤ 10 | 100 to 1000 | 50 to 100 | C=CC(=O)Nc1cc(N2CCN(CC)CC2)ccc1Nc1ncc(C#N)c(Nc2ccc(O)cc2OC(C)C)n1 [Example 28, N-(2-((5-cyano-4-((4-hydroxy-2-isopropoxyphenyl)amino)pyrimidin-2-yl)amino)-5-(4-ethylpiperazin-1-yl)phenyl) acrylamide] |
| 10 to 50 | 10 to 50 | ≤ 10 | ≤ 10 | C=CC(=O)Nc1cc(N2CCN(CC)CC2)ccc1Nc1ncc(C#N)c(Nc2ccc(Cl)cc2OC(C)C)n1 [Example 29, N-(2-((4-((4-chloro-2-isopropoxyphenyl)amino)-5-cyanopyrimidin-2-yl)amino)-5-(4-ethylpiperazin-1-yl)phenyl) acrylamide] |
| 10 to 50 | ≤ 10 | ≤ 10 | ≤ 10 | C=CC(=O)Nc1cc(N2CCN(CC)CC2)ccc1Nc1ncc(C#N)c(Nc2ccc(C)cc2OC(C)C)n1 [Example 30, N-(2-((5-cyano-4-((2-isopropoxy-4-methylphenyl)amino)pyrimidin-2-yl)amino)-5-(4-ethylpiperazin-1-yl)phenyl) acrylamide] |
| ≤ 10 | 10 to 50 | ≤ 10 | ≤ 10 | C=CC(=O)Nc1cc(N2CCN(CC)CC2)ccc1Nc1ncc(C#N)c(Nc2ccc(OC)cc2OC(C)C)n1 [Example 31, N-(2-((5-cyano-4-((2-isopropoxy-4-methoxyphenyl)amino)pyrimidin-2-yl)amino)-5-(4-ethylpiperazin-1-yl)phenyl) acrylamide] |
| 10 to 50 | 10 to 50 | 10 to 50 | 10 to 50 | C=CC(=O)Nc1cc(N2CCN(CC)CC2)ccc1Nc1ncc(C#N)c(Nc2ccc(S(C)(=O)=O)cc2OC(C)C)n1 [Example 35, N-(2-((5-cyano-4-((2-isopropoxy-4-(methylsulfonyl)phenyl)amino)pyrimidin-2-yl)amino)-5-(4-ethylpiperazin-1-yl)phenyl) acrylamide] |
| 50 to 100 | 50 to 100 | 10 to 50 | 10 to 50 | C=CC(=O)Nc1cc(N2CCN(CC)CC2)ccc1Nc1ncc(C#N)c(Nc2ccc(CCC)cc2OC(C)C)n1 [Example 38, N-(2-((5-cyano-4-((2-isopropoxy-4-propylphenyl)amino)pyrimidin-2-yl)amino)-5-(4-ethylpiperazin-1-yl)phenyl) acrylamide] |
